{"source": "PubChem BioAssay AID1259407", "about": "(Chemical Carcinogenesis Research Information System (CCRIS), 2018)", "test_system": "CCRIS mutagenicity, Ames/micronucleus/aberration tests", "test": "CCRIS mutagenicity studies", "key": {"[1]": {"settings": "Test System: AMES SALMONELLA TYPHIMURIUM, Strain/Indicator: TA100, Metabolic Activation: NONE, Method: STANDARD PLATE"}}, "note": "The source made the active and inactive calls. How the calls were made is not given here.", "data": [{"smiles": "CCCCNC(=O)OCC#CI", "values": [{"measurement": "mutagenic call", "setting": "End Point: Ames Salmonella typhimurium, Test System: TA98, Metabolic Activation: S-9, Method: Not specified", "result": "inactive; negative"}, {"measurement": "mutagenic call", "setting": "End Point: Ames Salmonella typhimurium, Test System: TA100, Metabolic Activation: S-9, Method: Not specified", "result": "inactive; negative"}, {"measurement": "mutagenic call", "setting": "End Point: Ames Salmonella typhimurium, Test System: TA1535, Metabolic Activation: S-9, Method: Not specified", "result": "inactive; negative"}, {"measurement": "mutagenic call", "setting": "End Point: Ames Salmonella typhimurium, Test System: TA1537, Metabolic Activation: S-9, Method: Not specified", "result": "inactive; negative"}, {"measurement": "mutagenic call", "setting": "End Point: Ames Salmonella typhimurium, Test System: TA1538, Metabolic Activation: S-9, Method: Not specified", "result": "inactive; negative"}, {"measurement": "mutagenic call", "setting": "End Point: In vivo micronucleus, Test System: Bone marrow polychromatic erythrocytes, Species: Mouse, Strain/Sex: CD-1/Males and females, Route: Oral", "result": "inactive; negative"}, {"measurement": "mutagenic call", "setting": "Test System: Ames Salmonella typhimurium, Strain/Indicator: TA98, Metabolic Activation: None, Method: Not specified", "result": "inactive; negative"}, {"measurement": "mutagenic call", "setting": "Test System: Ames Salmonella typhimurium, Strain/Indicator: TA100, Metabolic Activation: None, Method: Not specified", "result": "inactive; negative"}, {"measurement": "mutagenic call", "setting": "Test System: Ames Salmonella typhimurium, Strain/Indicator: TA1535, Metabolic Activation: None, Method: Not specified", "result": "inactive; negative"}, {"measurement": "mutagenic call", "setting": "Test System: Ames Salmonella typhimurium, Strain/Indicator: TA1537, Metabolic Activation: None, Method: Not specified", "result": "inactive; negative"}, {"measurement": "mutagenic call", "setting": "Test System: Ames Salmonella typhimurium, Strain/Indicator: TA1538, Metabolic Activation: None, Method: Not specified", "result": "inactive; negative"}]}, {"smiles": "CC1(C)[C@H](C(=O)O[C@H](C#N)c2cccc(Oc3ccccc3)c2)[C@@H]1C(Br)C(Br)(Br)Br", "note": "(stereo partly drawn)", "values": [{"measurement": "mutagenic call", "setting": "End Point: In vivo chromosomal aberrations, Test System: Bone marrow cells, Species: Rat, Strain/Sex: Sprague Dawley CD, Route: Gavage", "result": "inactive; negative"}, {"measurement": "mutagenic call", "setting": "Test System: Ames Salmonella typhimurium, Strain/Indicator: TA98, Metabolic Activation: None", "result": "inactive; negative (precipitation above 100 ug/plate)"}, {"measurement": "mutagenic call", "setting": "Test System: Ames Salmonella typhimurium, Strain/Indicator: TA98, Metabolic Activation: Rat, Liver, S-9, Aroclor 1254", "result": "inactive; negative (precipitation above 100 ug/plate)"}, {"measurement": "mutagenic call", "setting": "Test System: Ames Salmonella typhimurium, Strain/Indicator: TA100, Metabolic Activation: None", "result": "inactive; negative (precipitation above 100 ug/plate)"}, {"measurement": "mutagenic call", "setting": "Test System: Ames Salmonella typhimurium, Strain/Indicator: TA100, Metabolic Activation: Rat, Liver, S-9, Aroclor 1254", "result": "inactive; negative (precipitation above 100 ug/plate)"}, {"measurement": "mutagenic call", "setting": "Test System: Ames Salmonella typhimurium, Strain/Indicator: TA1535, Metabolic Activation: None", "result": "inactive; negative (precipitation above 100 ug/plate)"}, {"measurement": "mutagenic call", "setting": "Test System: Ames Salmonella typhimurium, Strain/Indicator: TA1535, Metabolic Activation: Rat, Liver, S-9, Aroclor 1254", "result": "inactive; negative (precipitation above 100 ug/plate)"}, {"measurement": "mutagenic call", "setting": "Test System: Ames Salmonella typhimurium, Strain/Indicator: TA1537, Metabolic Activation: None", "result": "inactive; negative (precipitation above 100 ug/plate)"}, {"measurement": "mutagenic call", "setting": "Test System: Ames Salmonella typhimurium, Strain/Indicator: TA1537, Metabolic Activation: Rat, Liver, S-9, Aroclor 1254", "result": "inactive; negative (precipitation above 100 ug/plate)"}, {"measurement": "mutagenic call", "setting": "Test System: Ames Salmonella typhimurium, Strain/Indicator: TA1538, Metabolic Activation: None", "result": "inactive; negative (precipitation above 100 ug/plate)"}, {"measurement": "mutagenic call", "setting": "Test System: Ames Salmonella typhimurium, Strain/Indicator: TA1538, Metabolic Activation: Rat, Liver, S-9, Aroclor 1254", "result": "inactive; negative (precipitation above 100 ug/plate)"}]}, {"smiles": "C[C@H]1C(=O)O[C@@H]2CCN3CC=C(COC(=O)[C@](C)(O)[C@]1(C)O)[C@H]23", "values": [{"measurement": "mutagenic call", "setting": "Test System: AMES SALMONELLA TYPHIMURIUM, Strain/Indicator: TA100, Metabolic Activation: HAMSTER, LIVER, S-9, PCB, Method: PREINCUBATION", "result": "inactive; negative"}, {"measurement": "mutagenic call", "setting": "Test System: AMES SALMONELLA TYPHIMURIUM, Strain/Indicator: TA100, Metabolic Activation: RAT, LIVER, S-9, PCB, Method: PREINCUBATION", "result": "inactive; negative"}, {"measurement": "mutagenic call", "setting": "Test System: AMES SALMONELLA TYPHIMURIUM, Strain/Indicator: TA100, Metabolic Activation: RAT, LIVER, S-9, SODIUM PHENOBARBITAL AND BETA-NAPHTHOFLAVONE, Method: PREINCUBATION", "result": "inactive; negative"}, {"measurement": "mutagenic call", "setting": "Test System: MOUSE LYMPHOMA, Strain/Indicator: L5178Y (TK+/TK-), Metabolic Activation: NONE, Method: MICROWELL", "result": "active; positive"}, {"measurement": "mutagenic call", "setting": "Test System: MOUSE LYMPHOMA, Strain/Indicator: L5178Y (TK+/TK-), Metabolic Activation: S-9, Method: MICROWELL", "result": "active; positive"}, {"measurement": "mutagenic call", "setting": "Test System: UDS HAMSTER HEPATOCYTES, Strain/Indicator: THY INCORP, Metabolic Activation: NONE, Method: AUTORADIOGRAPHY", "result": "active; positive"}, {"measurement": "mutagenic call", "setting": "Test System: UDS MOUSE HEPATOCYTES, Strain/Indicator: THY INCORP, Metabolic Activation: NONE, Method: AUTORADIOGRAPHY", "result": "active; positive"}, {"measurement": "mutagenic call", "setting": "Test System: UDS RAT HEPATOCYTES, Strain/Indicator: THY INCORP, Metabolic Activation: NONE, Method: AUTORADIOGRAPHY", "result": "active; positive"}]}, {"smiles": "Cc1c2ccccc2c(CCl)c2ccccc12", "values": [{"measurement": "mutagenic call", "setting": "Test System: AMES SALMONELLA TYPHIMURIUM, Strain/Indicator: TA1537, Metabolic Activation: NONE, Method: STANDARD PLATE", "result": "active; positive"}]}, {"smiles": "CC(Br)C(=O)Nc1ccccc1", "note": "(stereo not drawn)", "values": [{"measurement": "mutagenic call", "setting": "Test System: AMES SALMONELLA TYPHIMURIUM, Strain/Indicator: TA100, Metabolic Activation: MOUSE, LIVER, S-9, AROCLOR 1254, Method: STANDARD PLATE", "result": "active; positive"}, {"measurement": "mutagenic call", "setting": "[1]", "result": "inactive; negative"}]}, {"smiles": "C1=CC2OC2C=C1", "note": "(stereo not drawn)", "values": [{"measurement": "mutagenic call", "setting": "Test System: AMES SALMONELLA TYPHIMURIUM, Strain/Indicator: TA98, Metabolic Activation: NONE, Method: STANDARD PLATE", "result": "inactive; negative"}, {"measurement": "mutagenic call", "setting": "Test System: AMES SALMONELLA TYPHIMURIUM, Strain/Indicator: TA98, Metabolic Activation: RAT, LIVER, S-9, PHENOBARBITAL, Method: STANDARD PLATE", "result": "inactive; negative"}, {"measurement": "mutagenic call", "setting": "Test System: AMES SALMONELLA TYPHIMURIUM, Strain/Indicator: TA100, Metabolic Activation: NONE, Method: PREINCUBATION", "result": "inactive; negative"}, {"measurement": "mutagenic call", "setting": "[1]", "result": "inactive; negative"}, {"measurement": "mutagenic call", "setting": "Test System: AMES SALMONELLA TYPHIMURIUM, Strain/Indicator: TA100, Metabolic Activation: RAT, LIVER, S-9, PHENOBARBITAL, Method: PREINCUBATION", "result": "active; positive"}, {"measurement": "mutagenic call", "setting": "Test System: AMES SALMONELLA TYPHIMURIUM, Strain/Indicator: TA100, Metabolic Activation: RAT, LIVER, S-9, PHENOBARBITAL, Method: STANDARD PLATE", "result": "active; positive"}, {"measurement": "mutagenic call", "setting": "Test System: AMES SALMONELLA TYPHIMURIUM, Strain/Indicator: TA1535, Metabolic Activation: NONE, Method: STANDARD PLATE", "result": "inactive; negative"}, {"measurement": "mutagenic call", "setting": "Test System: AMES SALMONELLA TYPHIMURIUM, Strain/Indicator: TM677/8-AZAGUANINE, Metabolic Activation: NONE, Method: PREINCUBATION", "result": "inactive; negative"}, {"measurement": "mutagenic call", "setting": "Test System: AMES SALMONELLA TYPHIMURIUM, Strain/Indicator: TM677/8-AZAGUANINE, Metabolic Activation: NONE, Method: STANDARD PLATE", "result": "inactive; negative"}, {"measurement": "mutagenic call", "setting": "Test System: AMES SALMONELLA TYPHIMURIUM, Strain/Indicator: TM677, Metabolic Activation: RAT, LIVER, S-9, PHENOBARBITAL, Method: PREINCUBATION", "result": "active; positive"}]}]}
